“Also recorded” adds a separate entry of the source.

One compound from US20040209238A1, “Cell division-visualized cell and method of production of the same, method of detection of fluorescence, method of evaluation of influence upon cell division, and method of screenig” (NAGASE & CO., LTD., priority 2002, published 2004) can be followed below.

The subject of this experiment is human MDA435 cell (transformed with aurora A-GFP, histone H3-CFP, importin α-DsRed). Description: real-time fluorescence observation of cell division in the cell division-visualized cell after addition of an agent. The experiment is classed as cell-based. Conditions: vinblastine added to the culture fluid. As to the method:
As a cell to which the aforementioned plasmid DNA is introduced, human MDA435 cell (Vig et al., 1996; Sugimoto et al., 2000, 2001) was used. The human MDA435 cell was cultured in D-MEM medium containing 10% FCS (manufactured by Nissui Pharmaceutical Co., Ltd.) at 37° C. under 5% carbon dioxide in the air. Cells in the logarithmic growth phase were washed with 4 ml of 1×PBS (−), and the cells were detached by adding 1 ml of trypsin. After terminating the action of trypsin by adding 4 ml of D-MEM medium, the cell suspension was transferred into a centrifuge tube, and a part thereof was removed to subject to the measurement of cell number using a hematometer. The remaining part was centrifuged at 1000 rpm for 10 minutes, and thus recovered cells were washed by suspending in 12 ml of 1×PBS (−). This operation was repeated twice, and the cells were suspended in 1×K-PBS to give the cell density of 1.2×10^7 cells/ml.
The transformed cells described above were cultured in a wet chamber with controlled carbon dioxide concentration and temperature by a thermostat and a control timer of carbon dioxide introduction (Japan, manufactured by Kokensya Engineering), using a 35 mm dish (with a cover glass attached on the bottom: manufactured by ASAHI TECHNO GLASS CORPORATION) on the stage of a inverted fluorescence microscope “Eclipse TE300” (manufactured by Nikon) equipped with a objective lens “PlanApo 60×”. Then, a highly sensitive CCD camera ORCA-ER (manufactured by Hamamatsu Photonics K.K.), and an excitation/absorption filter wheel equipped with a filter set for CFP/YFP/RFP for the observation (No. 86006, manufactured by Chroma Technology Corp.) and aZ-axis motor, and a controller “BioPoint MAC5000” (manufactured by Ludl Electronic Products Ltd.) which is a control equipment of the same were used, with the use of a computer software (LuminaVision version 1.40, manufactured by Mitani Co., Ltd.) for controlling these accessories. […]

With `CC[C@]1(O)C[C@@H]2CN(CCc3c([nH]c4ccccc34)[C@@](C(=O)OC)(c3cc4c(cc3OC)N(C)[C@H]3[C@@](O)(C(=O)OC)[C@H](OC(C)=O)[C@]5(CC)C=CCN6CC[C@]43[C@@H]65)C2)C1` [vinblastine], where the note is “cyan fluorescence (histone H3), up to 130 minutes following initiation of the observation, FIG. 2 and FIG. 3”, the “alignment of the chromosomes on the equatorial plane (transition to the metaphase)” value is recorded as “not found even after lapse of 130 minutes; also recorded: not observed even after lapse of 130 minutes”. In addition, the “movement of the centrosomes toward the poles and formation of the spindle” value (green fluorescence (aurora A), FIG. 2) is listed as “inhibition was made on the movement of the centrosomes toward the poles”. Besides, for the setting “observed at intervals of 2 minutes, FIG. 2 and FIG. 3”, the “progress of cell division, transition from the prophase to the prometaphase” value is listed as “inhibition of the transition from the prophase to the prometaphase”.
